Experimental data from patent US20040171489A1, “Synergistic active compound combinations for controlling harmful plants” (priority 1998, published 2004).
Where a name gives a salt, the structure may show the parent alone.

What was measured:
[1] = tested on: winter wheat; assay: Example 12 field trial, 2- to 4-leaf stage: crop damage; assay type: in vivo, Triticum aestivum
Protocol: (§1) The herbicidal efficacy of the active compounds or active compound mixtures was scored visually using the treated plots in comparison to untreated control plots. The damage and development of all above-ground parts of the plants were recorded. Scoring was carried out using a percentage scale (100% effect=all plants killed; 50% effect=50% of the plants and the green parts of the plants killed; 0% effect=no noticeable effect=like control plot. The scores of in each case 4 plots were averaged.
(§2) If the observed activity values already exceed the formal sum of the values for the trials with the individual applications, they also exceed the expected value according to Colby which is calculated using the following formula and which is likewise considered to be an indication of synergism (cf. S. R. Colby; in Weeds 15 (1967) p. 20 to 22):
(§3) Crop plants were grown outdoors on plots under natural outdoor conditions, and seeds or rhizome pieces of typical harmful plants were laid out or the natural weed growth was utilized. Treatment with the compositions according to the invention was carried out after the harmful plants had emerged and the crop plants were, generally, at the 2- to 4-leaf stage; in some cases (as stated), application of individual active compounds or active compound combinations was carried out pre-emergence (cf. Section 1) or post-emergence (cf. Section 2) or as a sequential treatment partly pre-emergence and/or post-emergence. After the application, for example 2, 4, 6 and 8 weeks after the application, the effect of the preparations was scored visually by comparison with untreated controls (cf. scoring in Section 1). In the field trial as well, the compositions according to the invention have synergistic herbicidal activity against a broad spectrum of economically important weed grasses and broad-leaved weeds. […] Moreover, the effects in essential phases of the scoring period were above the expected values according to Colby, also indicating synergism. In contrast, the crop plants were, as a consequence of the treatments with the herbicidal compositions, damaged only to a small degree, if at all.

[2] = tested on: Lamium purpurea; assay: Example 12 field trial, 2- to 4-leaf stage: herbicidal effect; assay type: in vivo; conditions: 42 days after application
Protocol: as §1, §2, §3

[3] = tested on: Papaver rhoeas; assay: Example 5 field trial, 2-4 leaf stage: herbicidal effect; assay type: in vivo; conditions: 2.5 g of ai/ha; 28 days after application
Protocol: as §1, §2
as §3, with “In contrast, the crop plants were, as a consequence of the treatments with the herbicidal compositions, damaged only to a small degree, if at all.” left out

[4] = tested on: winter barley; assay: Example 5 field trial, 2-4 leaf stage: crop damage; assay type: in vivo, Hordeum vulgare; conditions: winter barley (Hordeum vulgare), in vivo, 28 days
Protocol: as §1, §2
as §3, with “In contrast, the crop plants were, as a consequence of the treatments with the herbicidal compositions, damaged only to a small degree, if at all.” left out

[5] = tested on: Oryza sativa (rice); assay: Example 22 field trial, 2-leaf stage: crop damage; assay type: in vivo
Protocol: as §1, §2, §3

[6] = tested on: Monochoria vaginalis; assay: Example 22 field trial, 2-leaf stage: herbicidal effect; assay type: in vivo; conditions: 14 days after application
Protocol: as §1, §2, §3

[7] = tested on: summer wheat; assay: Example 13 field trial, 2- to 4-leaf stage: crop damage; assay type: in vivo, Triticum aestivum
Protocol: as §1, §2, §3

[8] = tested on: Sorghum verticilliflorum; assay: Example 13 field trial, 2- to 4-leaf stage: herbicidal effect; assay type: in vivo; conditions: 17 days after application
Protocol: as §1, §2, §3

[9] = tested on: winter wheat; assay: Example 10 pre-emergence application, fall: crop damage; assay type: in vivo, Triticum aestivum; conditions: 250 g of ai/ha; 169 days after application
Excerpt: (§4) Seeds or rhizome pieces of monocotyledonous and dicotyledonous weed plants are placed in sandy loam soil in pots and covered with soil. The compositions, formulated in the form of concentrated aqueous solutions, wettable powders or emulsion concentrates, are then applied to the surface of the soil cover as aqueous solution, suspension or emulsion at an application rate of 600 to 800 l of water/ha (converted), in various dosages. After the treatment, the pots are placed in a greenhouse and kept under good growth conditions for the weeds. After the test plants have emerged, the damage to the plants or the negative effects on the emergence is scored visually after a test period of 3 to 4 weeks by comparison with untreated controls. As shown by the test results, the compositions according to the invention have good herbicidal pre-emergence activity against a broad spectrum of weed grasses and broad-leaved weeds.
as §1, §2, §3

[10] = tested on: Galium aparine; assay: Example 10 pre-emergence application, fall: herbicidal effect; assay type: in vivo; conditions: 169 days after application
Excerpt: as §4, §1, §2, §3

[11] = tested on: Capsella bursa-pastoris; assay: Example 11 field trial, 2- to 4-leaf stage: herbicidal effect; assay type: in vivo; conditions: 28 days after application
Protocol: as §1, §2, §3

[12] = tested on: winter wheat; assay: Example 11 field trial, 2- to 4-leaf stage: crop damage; assay type: in vivo, Triticum aestivum; conditions: 28 days after application
Protocol: as §1, §2, §3

[13] = tested on: Oryza sativa (rice); assay: Example 20 field trial, 3-leaf stage: crop damage; assay type: in vivo; conditions: in vivo
Protocol: as §1, §2, §3

[14] = tested on: Euphorbia heterophylla; assay: Example 20 field trial, 3-leaf stage: herbicidal effect; assay type: in vivo; conditions: 31 days after application
Protocol: as §1, §2, §3

[15] = tested on: Lamium amolexicaule; assay: Example 15 field trial, 2- to 4-leaf stage: herbicidal effect; assay type: in vivo; conditions: 28 days after application
Protocol: as §1, §2, §3

[16] = tested on: winter wheat; assay: Example 15 field trial, 2- to 4-leaf stage: crop damage; assay type: in vivo, Triticum aestivum; conditions: 28 days after application
Protocol: as §1, §2, §3

[17] = tested on: winter wheat; assay: Example 8 field trial, 4-leaf stage: crop damage; assay type: in vivo, Triticum aestivum; conditions: 28 days after application
Protocol: as §1, §2
as §3, with “In contrast, the crop plants were, as a consequence of the treatments with the herbicidal compositions, damaged only to a small degree, if at all.” left out

[18] = tested on: Veronica hederofolia; assay: Example 8 field trial, 4-leaf stage: herbicidal effect; assay type: in vivo; conditions: 28 days after application
Protocol: as §1, §2
as §3, with “In contrast, the crop plants were, as a consequence of the treatments with the herbicidal compositions, damaged only to a small degree, if at all.” left out

[19] = tested on: summer wheat; assay: Example 14 field trial, 2- to 4-leaf stage: crop damage; assay type: in vivo, Triticum aestivum; conditions: 28 days after application
Protocol: The damage and development of all above-ground parts of the plants were recorded.
Crop plants were grown outdoors on plots under natural outdoor conditions, and seeds or rhizome pieces of typical harmful plants were laid out or the natural weed growth was utilized.

[20] = tested on: Matricaria chamomilla; assay: Example 14 field trial, 2- to 4-leaf stage: herbicidal effect; assay type: in vivo; conditions: 28 days after application
Protocol: as §1, §2, §3

Structure (SMILES): CCOC(=O)/C(Cl)=C/c1cc(N2C(=O)C3=C(CCCC3)C2=O)ccc1Cl [(B2.6.8), cinidon-ethyl]
- damage, TRZAW ([1]; in vivo): 3%
- herbicidal effect, LAMPU ([2]; 25 g of ai/ha): 60%
- herbicidal effect, LAMPU ([2]; 50 g of ai/ha): 60%

Structure (SMILES): COc1nc(C)nc(NC(=O)NS(=O)(=O)c2cc(I)ccc2C(=O)O)n1 [(B3.1.4), iodosulfuron-methyl sodium salt, reference compound]
- herbicidal effect, PAPRH [3]: 0%
- damage, HORVW [4]: 0%

Structure (SMILES): C#CCN(C)c1c(C#N)cnn1-c1nn2c(c1Cl)CCCC2 [(B1.6.14), reference compound]
- damage, ORYSA ([5]; in vivo): 0%
- herbicidal effect, MOOVA ([6]; 25 g of ai/ha): 82%

Structure (SMILES): N#Cc1cc(Br)c(O)c(Br)c1 [(B2.3.1), bromoxynil]
- damage, TRZAS ([7]; 225 g of ai/ha, 17 days after application): 0%
- damage, TRZAS ([7]; 450 g of ai/ha, 17 days after application): 0%
- herbicidal effect, SORVE ([8]; 225 g of ai/ha): 0%
- herbicidal effect, SORVE ([8]; 450 g of ai/ha): 25%

Structure (SMILES): CNC1=C(c2cccc(C(F)(F)F)c2)C(=O)C(c2ccccc2)O1 (stereo not shown) [(B3.4.4), flurtamone]
- damage, TRZAW [9]: 2%
- herbicidal effect, GALAP ([10]; 250 g of ai/ha): 50%

Structure (SMILES): CCOC(=O)C(Cl)Cc1cc(-n2nc(C)n(C(F)F)c2=O)c(F)cc1Cl (stereo not shown) [(B2.6.3), carfentrazone-ethyl, reference compound]
- damage, ORYSA ([5]; 60 g of ai/ha, 14 days after application): 0%
- herbicidal effect, MOOVA ([6]; 60 g of ai/ha): 47%

Structure (SMILES): COc1ncc(F)c2nc(S(=O)(=O)Nc3c(F)cccc3F)nn12 [(B2.5.2), florasulam]
- damage, TRZAW ([1]; 3.7 g of ai/ha, 42 days after application): 3%
- damage, TRZAW ([1]; 7.5 g of ai/ha, 42 days after application): 3%
- damage, TRZAW ([1]; 15 g of ai/ha, 42 days after application): 6%
- herbicidal effect, LAMPU ([2]; 3.7 g of ai/ha): 35%
- herbicidal effect, LAMPU ([2]; 7.5 g of ai/ha): 35%
- herbicidal effect, LAMPU ([2]; 15 g of ai/ha): 40%

Structure (SMILES): O=C(Nc1ccc(F)cc1F)c1cccnc1Oc1cccc(C(F)(F)F)c1 [(B3.4.2), diflufenican, reference compound]
- herbicidal effect, CAPPBP ([11]; 75 g of ai/ha): 45%
- herbicidal effect, CAPPBP ([11]; 150 g of ai/ha): 67%
- damage, TRZAW ([12]; 75 g of ai/ha): 0%
- damage, TRZAW ([12]; 150 g of ai/ha): 0%

Structure (SMILES): CCOc1ccccc1OS(=O)(=O)NC(=O)Nc1nc(OC)cc(OC)n1 [(B2.1.9), ethoxysulfuron, reference compound]
- damage, ORYSA [13]: 0%
- herbicidal effect, EPHHL ([14]; 22.5 g of ai/ha): 45%
- herbicidal effect, EPHHL ([14]; 45 g of ai/ha): 65%

Structure (SMILES): COP(=S)(OC)SCC(=O)N(c1ccc(Cl)cc1)C(C)(C)C [(B1.6.5), anilofos, reference compound]
- damage, ORYSA ([5]; 250 g of ai/ha, 14 days after application): 5%
- herbicidal effect, MOOVA ([6]; 250 g of ai/ha): 95%

Structure (SMILES): CCC(CC)Nc1c([N+](=O)[O-])cc(C)c(C)c1[N+](=O)[O-] [(B1.2.2), pendimethalin]
- herbicidal effect, GALAP ([10]; 1000 g of ai/ha): 30%

Structure (SMILES): COc1cc(OC)nc(NC(=O)NS(=O)(=O)N(C)S(C)(=O)=O)n1 [(B2.1.4), amidosulfuron, reference compound]
- herbicidal effect, LAMAM ([15]; 12.5 g of ai/ha): 10%
- herbicidal effect, LAMAM ([15]; 25 g of ai/ha): 25%
- damage, TRZAW ([16]; 12.5 g of ai/ha): 0%
- damage, TRZAW ([16]; 25 g of ai/ha): 0%

Structure (SMILES): COC(=O)c1ccccc1S(=O)(=O)NC(=O)N(C)c1nc(C)nc(OC)n1 [(B2.1.1), tribenuron-methyl]
- damage, TRZAS ([7]; in vivo): 0%
- herbicidal effect, SORVE ([8]; 12.5 g of ai/ha): 0%

Structure (SMILES): COc1cc(Cl)cc(OCC(C)Nc2nc(N)nc(C(C)(C)F)n2)c1 (stereo not shown) [(A5), 4-amino-6-(1-fluoro-1-methylethyl)-2-[2-(3-chloro-5-methoxyphenoxy)-1-methylethylamino]-1,3,5-triazine]
- damage, TRZAW ([17]; 25 g of ai/ha): 0%
- damage, TRZAW ([17]; 50 g of ai/ha): 0%
- damage, TRZAW ([17]; 100 g of ai/ha): 0%
- herbicidal effect, VERHE ([18]; 25 g of ai/ha): 14%
- herbicidal effect, VERHE ([18]; 50 g of ai/ha): 22%
- herbicidal effect, VERHE ([18]; 100 g of ai/ha): 34%

Structure (SMILES): Cc1cc(Cl)ccc1O[C@@H](C)C(=O)O [(B2.2.4), mecoprop-P]
- damage, TRZAS ([19]; 750 g of ai/ha): 0%
- damage, TRZAS ([19]; 1500 g of ai/ha): 0%
- herbicidal effect, MATCH ([20]; 750 g of ai/ha): 54%
- herbicidal effect, MATCH ([20]; 1500 g of ai/ha): 63%

Structure (SMILES): N#Cc1cc(I)c(O)c(I)c1 [(B2.3.2), ioxynil]
- herbicidal effect, MATCH ([20]; 187 g of ai/ha): 30%
- herbicidal effect, MATCH ([20]; 375 g of ai/ha): 45%
